Earlier results on three substances are cited in US10285971B2, “Formulations of water-soluble derivatives of vitamin E and soft gel compositions, concentrates and powders containing same” (VIRUN, INC., priority 2014, dated 2019).

Bounds are passed on as bounds.

As to sucrose dipalmitate, the HLB value is on record as 7.4.

Regarding sucrose distearate, the HLB value is on record as 3.

As for sucrose monopalmitate, the HLB value is over 10.
